Results on 38 compounds are retold here after patent US11401286B2 (Tetra Discovery Partners, LLC, priority 2012, dated 2022).

For the test, the target named is PDE4D7 (Homo sapiens (Human), UniProt Q08499).
Setting [1] is: read-out: PDE4D7 IC50, PDE4D7 without asterisk.

SMILES strings stand for the structures. Where a name gives a salt, the structure may show the parent alone. Read-outs that look alike come from different tables or passages of the source.

PDE4D7, sequence (Q08499 other isoform, or with tags, fused parts or gaps): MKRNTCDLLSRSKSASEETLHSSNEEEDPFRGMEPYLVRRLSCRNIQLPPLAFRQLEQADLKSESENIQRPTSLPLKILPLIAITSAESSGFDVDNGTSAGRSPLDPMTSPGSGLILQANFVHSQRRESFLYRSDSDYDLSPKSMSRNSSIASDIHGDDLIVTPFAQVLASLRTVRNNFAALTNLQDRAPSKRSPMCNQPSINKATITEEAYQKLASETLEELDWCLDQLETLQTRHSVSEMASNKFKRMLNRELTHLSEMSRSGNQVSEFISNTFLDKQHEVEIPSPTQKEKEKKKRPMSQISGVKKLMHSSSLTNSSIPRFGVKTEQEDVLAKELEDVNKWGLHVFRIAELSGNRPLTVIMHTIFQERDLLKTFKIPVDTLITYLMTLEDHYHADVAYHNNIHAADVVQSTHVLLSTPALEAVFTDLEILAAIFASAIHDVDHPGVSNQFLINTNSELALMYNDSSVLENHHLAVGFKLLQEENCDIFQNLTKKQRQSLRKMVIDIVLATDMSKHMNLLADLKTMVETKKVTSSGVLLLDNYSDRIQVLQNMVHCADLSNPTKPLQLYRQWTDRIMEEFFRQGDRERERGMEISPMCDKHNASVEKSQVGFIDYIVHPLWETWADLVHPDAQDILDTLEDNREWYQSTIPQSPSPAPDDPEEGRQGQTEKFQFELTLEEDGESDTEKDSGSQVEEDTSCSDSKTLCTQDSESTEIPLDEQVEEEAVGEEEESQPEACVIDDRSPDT

Regarding `OCCc1ccc(Nc2cc(C(F)(F)F)nc(C3CCCC3)n2)cc1` [Example 227, 2-(4-((2-Cyclopentyl-6-(trifluoromethyl)pyrimidin-4-yl)amino)phenyl)ethanol], the IC50 under setting [1] is below 1 µM.
Still for that read-out and setting: in the case of `NC(=O)Cc1ccc(Nc2nc(-c3ccc(Cl)s3)nc3c2CCC3)cc1` [Example 20, 2-[4-[[2-(5-chloro-2-thienyl)-6,7-dihydro-5H-cyclopenta[d]pyrimidin-4-yl]amino]phenyl]acetamide] it was below 1 µM.
Still for that read-out and setting: in the case of `CNC(=O)Cc1ccc(Nc2cc(-c3cccc(Cl)c3)nc3c2CCC3)cc1` [Example 120, 2-(4-((2-(3-chlorophenyl)-6,7-dihydro-5H-cyclopenta[b]pyridin-4-yl)amino)phenyl)-N-methylacetamide hydrochloride] it was above 1 µM; in that of `OCCc1ccc(Nc2cc(-c3cc(Cl)cc(Cl)c3)nc3c2CCC3)cc1` [Example 158, 2-(4-((2-(3,5-Dichlorophenyl)-6,7-dihydro-5H-cyclopenta[b]pyridin-4-yl)amino)phenyl)ethanol hydrochloride], above 1 µM; in that of `O=C(O)Cc1ccc(Cc2cc(C(F)(F)F)nc(C3CCCC3)n2)cc1` [Example 229, 2-(4-((2-Cyclopentyl-6-(trifluoromethyl)pyrimidin-4-yl)methyl)phenyl)acetic acid], above 1 µM.
The same measure, in the same setting: in the case of `COC(=O)Cc1cccc(Nc2cc(-c3cccc(Cl)c3)nc3c2CCC3)c1` [Example 100, Methyl 2-(3-((2-(3-chlorophenyl)-6,7-dihydro-5H-cyclopenta[b]pyridin-4-yl)amino)phenyl)acetate hydrochloride] it was above 1 µM; in that of `NC(=O)Cc1ccc(Nc2cc(N3CCCC3)nc3c2CCC3)cc1` [Example 236, 2-(4-((2-(Pyrrolidin-1-yl)-6,7-dihydro-5H-cyclopenta[b]pyridin-4-yl)amino)phenyl)acetamide hydrochloride], above 1 µM.
For the compound `CN(c1ccc(CC(N)=O)cc1)c1cc(-c2cccc(Cl)c2)nc2c1CCC2` [Example 118, 2-(4-((2-(3-Chlorophenyl)-6,7-dihydro-5H-cyclopenta[b]pyridin-4-yl)(methyl)amino)phenyl)acetamide], the IC50 is above 1 µM.
Turning to `NC(=O)Cc1ccc(Nc2cc(OC3CCCC3)nc3c2CCC3)cc1` [Example 256, 2-(4-((2-(Cyclopentyloxy)-6,7-dihydro-5H-cyclopenta[b]pyridin-4-yl)amino)phenyl)acetamide hydrochloride], under setting [1], the IC50 is above 1 µM.
On the same count and under the same terms, to `CCc1cc(Nc2ccc(CC(N)=O)cc2)nc(C2CCCC2)n1` [Example 221, 2-(4-((2-Cyclopentyl-6-ethylpyrimidin-4-yl)amino)phenyl)acetamide] belongs below 1 µM.
As to `CC(C)(O)Cc1ccc(Nc2cc(-c3cccc(Cl)c3)nc3c2CCC3)cc1` [Example 98, 1-(4-((2-(3-Chlorophenyl)-6,7-dihydro-5H-cyclopenta[b]pyridin-4-yl)amino)phenyl)-2-methylpropan-2-ol], the IC50 under setting [1] is above 1 µM.
As to `NC(=O)Cc1ccc(Nc2nc(-c3cccc(Cl)c3)nc3c2S(=O)(=O)CCC3)cc1` [Example 274, 2-(4-((2-(3-chlorophenyl)-5,5-dioxido-7,8-dihydro-6H-thiopyrano[3,2-d]pyrimidin-4-yl)amino)phenyl)acetamide], the IC50 under setting [1] was below 1 µM.
Take `OCCc1ccc(Nc2cc(-c3ccc(Cl)cc3)nc3c2CCC3)cc1` [Example 149, 2-(4-((2-(4-Chlorophenyl)-6,7-dihydro-5H-cyclopenta[b]pyridin-4-yl)amino)phenyl)ethanol hydrochloride]: the IC50 under setting [1] is above 1 µM.
In the case of `CCc1cc(Cc2ccc(CCO)cc2)nc(-c2cccc(Cl)c2)n1` [Example 67, 2-(4-((2-(3-Chlorophenyl)-6-ethylpyrimidin-4-yl)methyl)phenyl)ethanol], the IC50 (read-out: PDE4D7 IC50) was below 1 µM.
For `OB1OCc2cc(Nc3nc(-c4ccc(Cl)s4)nc4c3CCC4)ccc21` [Example 293, 2-(5-Chloro-2-thienyl)-N-(1-hydroxy-3H-2,1-benzoxaborol-5-yl)-6,7-dihydro-5H-cyclopenta[d]pyrimidin-4-amine], under setting [1], the IC50 is below 1 µM.
The same measure, in the same setting: to `OCCc1ccc(Nc2cc(-c3ccco3)nc3c2CCC3)cc1` [Example 239, 2-(4-((2-(furan-2-yl)-6,7-dihydro-5H-cyclopenta[b]pyridin-4-yl)amino)phenyl)ethanol hydrochloride] belongs above 1 µM; to `OCCc1ccc(Nc2cc(C(F)(F)F)nc(OC3CCCC3)n2)cc1` [Example 199, 2-(4-((2-(Cyclopentyloxy)-6-(trifluoromethyl)pyrimidin-4-yl)amino)phenyl)ethanol], below 1 µM.
On the same count and under the same terms, in the case of `O=C(Cc1ccc(Nc2cc(C3CC3)nc(-c3cccc(Cl)c3)n2)nc1)NCCO` [Example 215, 2-(6-((2-(3-Chlorophenyl)-6-cyclopropylpyrimidin-4-yl)amino)pyridin-3-yl)-N-(2-hydroxyethyl)acetamide] it was below 1 µM.
The same measure, in the same setting: to `Cc1ccc(Cc2cc(-c3cccc(Cl)c3)nc3c2CCC3)cc1` [Example 289, 2-(3-Chlorophenyl)-4-(4-methylbenzyl)-6,7-dihydro-5H-cyclopenta[b]pyridine hydrochloride] belongs above 1 µM.
With `CCc1nc(Nc2ccc(C#N)cc2)nc(-c2cccc(Cl)c2)n1` [Example 51, 4-(4-(3-chlorophenyl)-6-ethyl-1,3,5-triazin-2-ylamino)benzonitrile], the 50% inhibitory concentration (IC50) under setting [1] was below 1 µM.
For `OCCc1ccc(Nc2nc(-c3cccc(Cl)c3)nc3c2SCC3)cc1` [Example 279, 2-(4-((2-(3-Chlorophenyl)-6,7-dihydrothieno[3,2-d]pyrimidin-4-yl)amino)phenyl)ethanol], the IC50 under setting [1] was below 1 µM.
Take `CCc1nc(Nc2ccc(CCCO)cc2)nc(-c2cccc(Cl)c2)n1` [Example 81, 3-(4-((4-(3-Chlorophenyl)-6-ethyl-1,3,5-triazin-2-yl)amino)phenyl)propan-1-ol]: where the note is “read-out: PDE4D7 IC50”, the IC50 was below 1 µM.
`CCc1nc(Nc2ccc(CC#N)cc2)nc(-c2cccc(Cl)c2)n1` [Example 52, 2-(4-(4-(3-chlorophenyl)-6-ethyl-1,3,5-triazin-2-ylamino)phenyl)acetonitrile]: the IC50 under setting [1] was below 1 µM.
`CCCN(C)C(=O)Cc1ccc(Cc2cc(CC)nc(-c3cccc(Cl)c3)n2)cc1` [Example 194, 2-(4-((2-(3-Chlorophenyl)-6-ethylpyrimidin-4-yl)methyl)phenyl)-N-methyl-N-propylacetamide]: the IC50 under setting [1] is below 1 µM.
Same read-out and setting: to `CCc1nc(Nc2ccc(CC(N)=O)cc2)cc(-c2cccc(Cl)c2)n1` [Example 265, 2-(4-((6-(3-chlorophenyl)-2-ethylpyrimidin-4-yl)amino)phenyl)acetamide] belongs below 1 µM.
Turning to `CCc1c(C)nc(-c2ccc(Cl)s2)nc1Nc1ccc(B(O)O)cc1` [Example 292, [4-[[2-(5-Chloro-2-thienyl)-5-ethyl-6-methyl-pyrimidin-4-yl]amino]phenyl]boronic acid], the IC50 under setting [1] was below 1 µM.
Turning to `OCCc1ccc(Nc2nc(-c3cccc(Cl)c3)nc3c2SCCC3)cc1` [Example 272, 2-(4-((2-(3-chlorophenyl)-7,8-dihydro-6H-thiopyrano[3,2-d]pyrimidin-4-yl)amino)phenyl)ethanol], under setting [1], the IC50 was below 1 µM.
Consider `CCc1cc(Nc2ccc(Cn3cccn3)cc2)nc(-c2cccc(Cl)c2)n1` [Example 189, N-(4-((1H-Pyrazol-1-yl)methyl)phenyl)-2-(3-chlorophenyl)-6-ethylpyrimidin-4-amine], for which the IC50 under setting [1] was below 1 µM.
In the case of `O=C(O)Cc1ccc(Nc2cc(C3CC3)nc(-c3cccc(Cl)c3)n2)nc1` [Example 213, 2-(6-((2-(3-Chlorophenyl)-6-cyclopropylpyrimidin-4-yl)amino)pyridin-3-yl)acetic acid], the IC50 under setting [1] was above 1 µM.
For `NC(=O)Cc1ccc(Nc2nc(C3CCCC3)nc3c2S(=O)(=O)CCC3)cc1` [Example 286, 2-(4-((2-cyclopentyl-5,5-dioxido-7,8-dihydro-6H-thiopyrano[3,2-d]pyrimidin-4-yl)amino)phenyl)acetamide], the IC50 under setting [1] is below 1 µM.
Still for that read-out and setting: to `Cc1cccc(-c2cc(Nc3ccc(CC(N)=O)cc3)c3c(n2)CCC3)c1` [Example 159, 2-(4-((2-(m-Tolyl)-6,7-dihydro-5H-cyclopenta[b]pyridin-4-yl)amino)phenyl)acetamide hydrochloride] belongs above 1 µM; to `CC(Cc1ccc(Nc2cc(-c3cccc(Cl)c3)nc3c2CCC3)cc1)(C(N)=O)C(N)=O` [Example 124, 2-(4-((2-(3-Chlorophenyl)-6,7-dihydro-5H-cyclopenta[b]pyridin-4-yl)amino)benzyl)-2-methylmalonamide hydrochloride], above 1 µM; to `COC(=O)Cc1ccc(Cc2cc(-c3cccc(Cl)c3)nc(C(F)(F)F)c2)cc1` [Example 141, Methyl 2-(4-((2-(3-chlorophenyl)-6-(trifluoromethyl)pyridin-4-yl)methyl)phenyl)acetate], above 1 µM.
Consider `OCCCc1cccc(-c2cc(-c3cccc(Cl)c3)nc3c2CCC3)c1` [Example 266, 3-(3-(2-(3-chlorophenyl)-6,7-dihydro-5H-cyclopenta[b]pyridin-4-yl)phenyl)propan-1-ol hydrochloride], for which the IC50 under setting [1] is above 1 µM.
The same measure, in the same setting: in the case of `OCCc1ccc(Nc2cc(-c3ncco3)nc3c2CCC3)cc1` [Example 241, 2-(4-((2-(Oxazol-2-yl)-6,7-dihydro-5H-cyclopenta[b]pyridin-4-yl)amino)phenyl)ethanol] it was above 1 µM; in that of `Cc1ccc(C(=O)c2nc(-c3cccc(Cl)c3)nc3c2CCC3)cc1` [Example 70, (2-(3-Chlorophenyl)-6,7-dihydro-5H-cyclopenta[d]pyrimidin-4-yl)(p-tolyl)methanone], above 1 µM; in that of `NC(=O)Cc1ccc(Nc2cc(-c3cccc(Cl)c3)nc3c2CCC3)nc1` [Example 94, 2-(6-((2-(3-Chlorophenyl)-6,7-dihydro-5H-cyclopenta[b]pyridin-4-yl)amino)pyridin-3-yl)acetamide hydrochloride], above 1 µM.
The same measure, in the same setting: to `CC(=O)Cc1ccc(Nc2nc(-c3cccc(Cl)c3)nc3c2CCC3)cc1` [Example 164, 1-(4-((2-(3-Chlorophenyl)-6,7-dihydro-5H-cyclopenta[d]pyrimidin-4-yl)amino)phenyl)propan-2-one] belongs above 1 µM.

As usually defined, the IC50 is the concentration that gives 50% inhibition.
